What was measured:
[1] = tested on: GFP-HIV protease fusion; test: GFP-HIV protease reporter assay in HEK293 T-REx cells; assay type: cell-based, human
[2] = biological target: FKBP; settings: read-out: KD for FKBP; cited from earlier work
[3] = biological target: recombinant human FKBP12 (Homo sapiens, UniProt P62942); test: PAMPA partitioning with recombinant human FKBP12 on one side of the membrane; settings: compared to control wells
Chain of recombinant human FKBP12 (P62942 whole entry): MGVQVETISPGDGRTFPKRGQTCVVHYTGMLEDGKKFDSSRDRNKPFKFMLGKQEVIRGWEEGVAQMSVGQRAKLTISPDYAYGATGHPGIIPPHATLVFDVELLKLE

COc1ccc(S(=O)(=O)N(CC(C)C)C[C@@H](O)[C@H](Cc2ccccc2)NC(=O)O[C@H]2CCOC2)cc1 [4-OMe-amprenavir]
rescue of cell viability and GFP fluorescence ([1]; 5 μM, after doxycycline induction, fluorescence and light microscopy): could rescue cell viability and increase fluorescence | dependence of GFP fluorescence on mCherry-FKBP12 over-expression ([1]; transient mCherry-FKBP12 over-expression, microscopy): did not show this dependence on mCherry-FKBP12 expression

C=CC[C@@H]1/C=C(\C)C[C@H](C)C[C@H](OC)[C@H]2O[C@@](O)(C(=O)C(=O)N3CCCC[C@H]3C(=O)O[C@H](/C(C)=C/[C@@H]3CC[C@@H](O)[C@H](OC)C3)[C@H](C)[C@@H](O)CC1=O)[C@H](C)C[C@@H]2OC [FK506]
Kd [2]: ~0.6 nM

CC(C)CN(C[C@@H](O)[C@H](Cc1ccccc1)NC(=O)O[C@H]1CCOC1)S(=O)(=O)c1ccc(N)cc1 [amprenavir]
enhancement of partitioning by FKBP12 [3]: unaffected by FKBP12

Reference: article PMC4714926 (ACS chemical biology, 2015)
